In data set [1] the test system is SARS-CoV-2. As to the kind of experiment: Syrian hamster SARS-CoV-2 infection model. Format: in vivo. The conditions noted are these: 60, 90 or 120 mg/kg per os once a day for 7 days. The protocol:
The efficacy of cysteamine-pantetheine disulfide (compound 1) is assessed in the Syrian hamster model. Maximal clinical signs of rapid breathing, weight loss, histopathological changes from the initial exudative phase of diffuse alveolar damage with extensive apoptosis to the later proliferative phase of tissue repair, airway and intestinal involvement with virus nucleocapsid protein expression, high lung viral load, and spleen and lymphoid atrophy associated with marked cytokine activation are observed within the first week of virus challenge. The lung virus titer is between 10^5-10^7 TCID50/g. Challenged index hamsters can consistently infected naïve contact hamsters housed within the same cage, resulting in similar pathology but not weight loss. All infected hamsters can recover and develop mean serum neutralizing antibody titer ≥1:427 fourteen days post-challenge. Immunoprophylaxis with early convalescent serum can achieve significant decrease in lung viral load but not in lung pathology.
Three groups of 3 Syrian hamsters infected by SARS-CoV-2 per group receive cysteamine-pantetheine disulfide (compound 1) per os once a day for 7 days. The first group receives 60 mg/kg, second group 90 mg/kg and third group 120 mg/kg. Clinical status, biological parameters and viral load are characterized every day.

Data set [2] deals with SARS-CoV-2. As to the kind of experiment: Single-dose/multiple dose open-label study in patients with COVID-19. In kind it is in vivo, human. Particulars: patients infected with SARS-CoV-2, end of study. The method, then: A single-dose/multiple dose, open-labeled, non-randomized, two-period study of Cysteamine-Pantetheine Disulfide (compound 1) in […] (male and female) with COVID-19 under fasting or fed conditions is performed. Prior to treatment, patients undergo screening to determine study eligibility (Day-1).
Pharmacodynamic Evaluations: SARS-CoV-2 viral load will be obtained from samples collected from Day 0 to Day 15 according to the Schedule of Events.

The conditions of data set [3]: administered to fasting patients; cited from earlier work.

In the case of `CC(C)(CO)[C@@H](O)C(=O)NCCC(=O)NCCSSCCN` [compound 1, cysteamine-(R)-pantetheine disulfide], in data set [1], the recovery result is “more rapid recovery”, the symptoms of infection entry is “less severe symptoms of infection” and the viral load result is recorded as “lower viral load”. The “risk of severe COVID-19 outcomes (pneumonitis, ARDS, respiratory failure, septic shock, organ failure, cytokine storm, death)” value in data set [2] is on record as “lower risk”.
For `NCCS` [cysteamine, 2-aminoethanethiol], the “inter-patient variation in cysteamine plasma levels” value in data set [3] was “up to four fold”.

These data come from patent publication US20230218571A1 (Thiogenesis Therapeutics, Inc., priority 2020, published 2023).
